The target of series [1] is Serine/threonine-protein kinase 24 (Homo sapiens) (UniProt Q9Y6E0). Description: Binding affinity to recombinant MST3 (unknown origin) assessed as stabilization by measuring change in melting temperature at 10 uM by SYPRO orange dye based differential scanning fluorimetry assay. (DSF heats the sample and reads unfolding from a dye or from intrinsic fluorescence.)
The target of series [2] is Serine/threonine-protein kinase 26 (Homo sapiens) (UniProt Q9P289). Description: Binding affinity to recombinant MST4 (unknown origin) assessed as stabilization by measuring change in melting temperature at 10 uM by SYPRO orange dye based differential scanning fluorimetry assay.
Chain of Serine/threonine-protein kinase 26 (Homo sapiens) (Q9P289 2-416 limits assumed): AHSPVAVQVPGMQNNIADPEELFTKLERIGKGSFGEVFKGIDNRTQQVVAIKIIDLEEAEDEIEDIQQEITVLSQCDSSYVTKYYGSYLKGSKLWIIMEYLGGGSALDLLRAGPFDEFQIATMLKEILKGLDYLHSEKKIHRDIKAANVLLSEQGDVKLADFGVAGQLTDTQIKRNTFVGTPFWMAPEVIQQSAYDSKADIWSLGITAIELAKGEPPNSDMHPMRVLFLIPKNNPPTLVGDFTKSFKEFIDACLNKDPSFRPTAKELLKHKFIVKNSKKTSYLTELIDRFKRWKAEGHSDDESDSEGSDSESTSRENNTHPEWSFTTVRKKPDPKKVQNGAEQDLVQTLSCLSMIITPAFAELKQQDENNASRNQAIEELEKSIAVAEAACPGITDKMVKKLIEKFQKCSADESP
The target in series [3] is T1, Serine/threonine-protein kinase 3 (Homo sapiens) (UniProt Q13188).
T1 sequence (whole entry): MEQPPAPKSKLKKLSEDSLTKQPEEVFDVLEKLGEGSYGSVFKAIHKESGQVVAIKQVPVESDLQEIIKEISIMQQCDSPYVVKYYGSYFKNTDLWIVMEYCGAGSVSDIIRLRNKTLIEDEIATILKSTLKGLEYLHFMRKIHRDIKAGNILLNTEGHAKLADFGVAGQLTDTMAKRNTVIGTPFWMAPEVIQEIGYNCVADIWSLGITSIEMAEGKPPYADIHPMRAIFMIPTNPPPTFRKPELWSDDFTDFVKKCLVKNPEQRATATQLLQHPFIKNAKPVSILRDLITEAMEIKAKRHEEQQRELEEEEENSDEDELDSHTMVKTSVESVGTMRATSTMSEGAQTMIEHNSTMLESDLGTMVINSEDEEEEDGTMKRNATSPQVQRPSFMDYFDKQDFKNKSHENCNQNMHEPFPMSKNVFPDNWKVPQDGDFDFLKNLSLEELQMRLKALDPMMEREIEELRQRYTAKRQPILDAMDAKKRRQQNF
The experiment in a line: Binding affinity to recombinant MST2 (unknown origin) assessed as stabilization by measuring change in melting temperature at 10 uM by SYPRO orange dye based differential scanning fluorimetry assay.

Series [4] concerns the target Serine/threonine-protein kinase PAK 1 (Homo sapiens) (UniProt Q13153). Description: Binding affinity to recombinant PAK1 (unknown origin) assessed as stabilization by measuring change in melting temperature at 10 uM by SYPRO orange dye based differential scanning fluorimetry assay.
The target in series [5] is T2, Serine/threonine-protein kinase 4 (Homo sapiens) (UniProt Q13043).
T2 sequence (whole entry): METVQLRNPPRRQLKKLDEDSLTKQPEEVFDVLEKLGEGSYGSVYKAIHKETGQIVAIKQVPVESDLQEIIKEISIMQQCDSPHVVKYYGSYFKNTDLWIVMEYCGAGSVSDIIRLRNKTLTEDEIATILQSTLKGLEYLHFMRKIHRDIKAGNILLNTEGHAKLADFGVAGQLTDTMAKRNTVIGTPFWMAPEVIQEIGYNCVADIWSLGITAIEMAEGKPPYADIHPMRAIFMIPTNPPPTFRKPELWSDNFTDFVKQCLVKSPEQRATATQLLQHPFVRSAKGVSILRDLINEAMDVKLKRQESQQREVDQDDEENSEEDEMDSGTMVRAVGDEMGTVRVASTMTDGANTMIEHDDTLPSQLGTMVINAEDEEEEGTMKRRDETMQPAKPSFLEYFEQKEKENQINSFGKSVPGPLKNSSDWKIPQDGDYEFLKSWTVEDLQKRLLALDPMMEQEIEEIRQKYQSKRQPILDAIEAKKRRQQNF
The experiment in a line: Binding affinity to recombinant MST1 (unknown origin) assessed as stabilization by measuring change in melting temperature at 10 uM by SYPRO orange dye based differential scanning fluorimetry assay.

The test system of series [6] is HCT-116. The experiment in a line: Cytotoxicity against human HCT-116 cells assessed as decrease in cell viability at 10 uM incubated for 24 hrs by Hoechst-33342 staining high-content imaging analysis. In kind it is toxicity, cell-based. As to conditions: hct-116, 24 h.
Series [7] deals with Serine/threonine-protein kinase SIK2 (Homo sapiens) (UniProt Q9H0K1). The experiment in a line: Inhibition of recombinant human GST-tagged SIK2 assessed as downregulation of SIK2 phosphorylation at Ser358 incubated for 30 mins by Western blotting analysis.
Chain of Serine/threonine-protein kinase SIK2 (Homo sapiens) (Q9H0K1 whole entry, looked up): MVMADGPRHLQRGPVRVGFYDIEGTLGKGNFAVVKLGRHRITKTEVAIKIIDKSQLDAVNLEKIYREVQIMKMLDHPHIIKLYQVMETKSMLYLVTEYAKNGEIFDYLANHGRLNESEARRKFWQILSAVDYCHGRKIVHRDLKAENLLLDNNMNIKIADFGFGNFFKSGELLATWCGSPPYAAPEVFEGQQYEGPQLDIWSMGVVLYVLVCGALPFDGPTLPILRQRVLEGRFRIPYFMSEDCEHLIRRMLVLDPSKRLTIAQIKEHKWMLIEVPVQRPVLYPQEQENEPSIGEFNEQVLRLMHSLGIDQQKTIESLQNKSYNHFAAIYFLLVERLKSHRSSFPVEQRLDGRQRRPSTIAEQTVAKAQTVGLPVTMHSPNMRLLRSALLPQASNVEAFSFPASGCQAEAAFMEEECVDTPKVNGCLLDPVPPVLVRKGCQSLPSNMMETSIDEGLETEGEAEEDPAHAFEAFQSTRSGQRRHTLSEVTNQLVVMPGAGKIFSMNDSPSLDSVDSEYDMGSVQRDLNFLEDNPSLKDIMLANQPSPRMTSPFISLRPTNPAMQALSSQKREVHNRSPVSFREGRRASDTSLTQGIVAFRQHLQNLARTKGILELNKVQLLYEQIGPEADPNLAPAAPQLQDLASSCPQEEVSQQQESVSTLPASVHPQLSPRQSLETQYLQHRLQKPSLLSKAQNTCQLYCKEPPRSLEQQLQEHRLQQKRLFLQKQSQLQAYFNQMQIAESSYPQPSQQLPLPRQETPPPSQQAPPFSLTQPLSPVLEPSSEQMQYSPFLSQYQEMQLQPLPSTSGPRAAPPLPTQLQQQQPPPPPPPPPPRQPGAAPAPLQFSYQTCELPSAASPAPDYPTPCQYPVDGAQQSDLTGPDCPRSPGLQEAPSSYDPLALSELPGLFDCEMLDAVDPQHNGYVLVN
For series [8], the system named is HCT-116. The experiment in a line: Cytotoxicity against human HCT-116 cells assessed as reduction in cell count at 1 uM incubated for >60 hrs by Hoechst-33342 staining high-content imaging analysis. The series is classed as toxicity, cell-based. Conditions: hct-116, 60 h.
The target of series [9] is Serine/threonine-protein kinase SIK2 (Homo sapiens) (UniProt Q9H0K1). Description: Inhibition of SIK2 in human SK-OV-3 cells assessed as decrease in centrosome dissociation in G2 phase at 5 uM incubated for 48 hrs by immunofluorescence assay. The series is classed as cell-based.
The subject of series [10] is SK-OV-3. Description: Induction of cell cycle arrest in human SK-OV-3 cells assessed as accumulation of cells at G1 phase at 5 uM incubated for 24 hrs by flow cytometry (reference value: 34%). In kind it is functional. (In general: In flow cytometry, cells or beads pass a laser one at a time.)
In series [11] the test system is SK-OV-3. The experiment in a line: Induction of cell cycle arrest in human SK-OV-3 cells assessed as accumulation of cells at S phase at 5 uM incubated for 24 hrs by flow cytometry (reference value: 32%). In kind it is functional.
Series [12] addresses Serine/threonine-protein kinase SIK2 (Homo sapiens) (UniProt Q9H0K1). Description: Inhibition of SIK2 in human SK-OV-3 cells assessed as downregulation of AKT phosphorylation at Ser473 at 5 uM incubated for 48 hrs by Western blotting analysis. In kind it is cell-based. Background: A western blot detects proteins with antibodies after separation by electrophoresis.
Series [13] shares this target. Description: Inhibition of recombinant human GST-tagged SIK2 assessed as downregulation of SIK2 phosphorylation at Ser358 a 5 uM incubated for 30 mins by Western blotting analysis.
For series [14], the system named is HCT-116. Description: Cytotoxicity against human HCT-116 cells assessed as effect on cell viability at 1 uM incubated for 80 hrs by Hoechst-33342 staining high-content imaging analysis. The series is classed as toxicity, cell-based. As to conditions: hct-116, 80 h.
For series [15], the system named is SK-OV-3. The experiment in a line: Induction of cell cycle arrest in human SK-OV-3 cells assessed as accumulation of cells at G2 phase at 5 uM incubated for 24 hrs by flow cytometry (reference value: 24%). The series is classed as functional.
Series [16] addresses Mitogen-activated protein kinase kinase kinase 20 (Homo sapiens, UniProt Q9NYL2). Description: Inhibition of full-length human ZAK using MBP as substrate in presence off ATP by competitive binding assay.
Series [17] addresses Serine/threonine-protein kinase SIK1 (Homo sapiens, UniProt P57059). The experiment in a line: Inhibition of full length NanoLuc fused SIK1 (unknown origin) transfected in HEK293T cells using NanoBRET NanoGlo substrate incubated for 2 hrs in presence of tracer by NanoBRET assay. In kind it is cell-based.

SMILES strings stand for the structures. Activity calls are given as the source filed them. The calls are words filed in the database; no cut-off is given here.

Chain of Serine/threonine-protein kinase PAK 1 (Homo sapiens) (Q13153 whole entry): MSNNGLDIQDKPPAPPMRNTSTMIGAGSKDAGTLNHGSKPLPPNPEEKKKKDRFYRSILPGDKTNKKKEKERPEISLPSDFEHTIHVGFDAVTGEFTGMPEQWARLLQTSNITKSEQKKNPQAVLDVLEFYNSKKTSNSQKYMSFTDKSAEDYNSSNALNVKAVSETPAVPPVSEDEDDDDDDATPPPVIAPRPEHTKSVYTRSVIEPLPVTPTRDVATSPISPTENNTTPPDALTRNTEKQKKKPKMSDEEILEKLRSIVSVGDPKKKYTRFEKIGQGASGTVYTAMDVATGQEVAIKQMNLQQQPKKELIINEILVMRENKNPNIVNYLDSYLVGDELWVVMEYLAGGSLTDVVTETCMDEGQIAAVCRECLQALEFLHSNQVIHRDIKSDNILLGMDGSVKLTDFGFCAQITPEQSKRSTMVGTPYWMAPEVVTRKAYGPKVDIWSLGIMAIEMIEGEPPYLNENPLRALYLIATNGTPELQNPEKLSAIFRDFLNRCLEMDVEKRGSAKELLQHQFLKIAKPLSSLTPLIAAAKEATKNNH
Chain of Serine/threonine-protein kinase 24 (Homo sapiens) (Q9Y6E0 whole entry, looked up): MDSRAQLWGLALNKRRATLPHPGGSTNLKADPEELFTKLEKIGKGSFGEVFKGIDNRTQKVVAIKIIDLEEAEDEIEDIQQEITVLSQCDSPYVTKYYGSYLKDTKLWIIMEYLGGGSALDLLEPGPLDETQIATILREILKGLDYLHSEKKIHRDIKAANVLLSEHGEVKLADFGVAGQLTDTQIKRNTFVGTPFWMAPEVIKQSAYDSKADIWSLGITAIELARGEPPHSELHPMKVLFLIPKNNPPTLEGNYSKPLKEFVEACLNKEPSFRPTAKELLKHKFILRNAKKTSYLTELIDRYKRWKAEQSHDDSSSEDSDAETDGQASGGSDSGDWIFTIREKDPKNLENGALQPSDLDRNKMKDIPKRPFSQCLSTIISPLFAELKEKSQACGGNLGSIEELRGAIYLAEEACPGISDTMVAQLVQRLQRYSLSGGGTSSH
Chain of Serine/threonine-protein kinase SIK1 (P57059 whole entry, the tested form may be a part): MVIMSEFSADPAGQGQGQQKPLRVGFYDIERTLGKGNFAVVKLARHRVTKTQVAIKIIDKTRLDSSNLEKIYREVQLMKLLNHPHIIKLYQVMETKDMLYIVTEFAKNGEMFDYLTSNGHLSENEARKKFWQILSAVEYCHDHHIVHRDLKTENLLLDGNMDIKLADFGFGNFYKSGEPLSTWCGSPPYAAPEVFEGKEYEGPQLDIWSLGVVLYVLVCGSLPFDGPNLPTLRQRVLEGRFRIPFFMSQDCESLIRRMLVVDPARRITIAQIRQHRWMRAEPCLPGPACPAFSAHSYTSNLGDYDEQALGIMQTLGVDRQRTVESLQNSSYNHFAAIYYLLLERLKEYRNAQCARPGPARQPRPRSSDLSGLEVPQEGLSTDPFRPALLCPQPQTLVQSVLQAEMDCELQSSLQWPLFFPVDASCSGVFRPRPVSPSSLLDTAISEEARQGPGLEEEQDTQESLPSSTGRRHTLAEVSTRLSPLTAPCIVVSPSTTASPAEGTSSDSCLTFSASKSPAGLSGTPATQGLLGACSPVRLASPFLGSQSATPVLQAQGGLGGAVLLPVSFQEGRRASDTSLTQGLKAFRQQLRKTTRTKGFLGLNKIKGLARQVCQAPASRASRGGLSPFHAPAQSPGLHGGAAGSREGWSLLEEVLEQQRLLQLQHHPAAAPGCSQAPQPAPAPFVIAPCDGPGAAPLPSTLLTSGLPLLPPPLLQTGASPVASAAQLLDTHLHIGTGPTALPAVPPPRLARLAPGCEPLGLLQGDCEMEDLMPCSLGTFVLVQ
Chain of Mitogen-activated protein kinase kinase kinase 20 (Q9NYL2 whole entry, the tested form may be a part): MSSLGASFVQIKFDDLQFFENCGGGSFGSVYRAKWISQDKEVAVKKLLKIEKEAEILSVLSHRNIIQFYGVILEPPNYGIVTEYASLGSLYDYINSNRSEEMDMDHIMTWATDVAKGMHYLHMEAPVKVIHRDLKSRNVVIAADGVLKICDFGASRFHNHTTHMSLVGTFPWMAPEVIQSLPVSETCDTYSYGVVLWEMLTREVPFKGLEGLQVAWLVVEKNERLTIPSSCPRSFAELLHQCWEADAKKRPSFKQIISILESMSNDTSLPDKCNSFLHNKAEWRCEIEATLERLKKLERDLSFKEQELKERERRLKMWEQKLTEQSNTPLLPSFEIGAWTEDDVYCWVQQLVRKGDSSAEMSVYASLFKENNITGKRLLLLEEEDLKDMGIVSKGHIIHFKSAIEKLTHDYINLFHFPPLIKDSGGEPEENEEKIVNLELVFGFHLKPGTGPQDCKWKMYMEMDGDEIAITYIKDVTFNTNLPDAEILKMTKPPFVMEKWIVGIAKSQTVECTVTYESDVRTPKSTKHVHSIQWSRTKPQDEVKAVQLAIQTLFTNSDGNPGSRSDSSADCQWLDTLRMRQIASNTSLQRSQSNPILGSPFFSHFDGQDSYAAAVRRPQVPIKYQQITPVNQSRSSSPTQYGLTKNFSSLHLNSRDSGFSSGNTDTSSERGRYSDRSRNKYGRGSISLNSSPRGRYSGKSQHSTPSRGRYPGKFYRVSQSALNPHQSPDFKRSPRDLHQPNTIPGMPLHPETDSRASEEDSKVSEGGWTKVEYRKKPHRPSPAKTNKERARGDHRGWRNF

By ΔTm is commonly meant the change in melting temperature against a reference sample. Take `CNc1ncc2cc(-c3cc(Br)ccc3Cl)c(=O)n(C[C@H]3OC[C@H](N)CO3)c2n1`: the ΔTm in [1] came to 0.8 °C; in series [2], 0.6 °C; in series [3], 1.5 °C; in series [4], 0.6 °C; in series [5], 1.7 °C.

For the molecule `CNc1ncc2cc(-c3ccccc3Cl)c(=O)n(CCCCN)c2n1`, the ΔTm is 3.8 °C in series [1]; 2.6 °C in series [2]; 2.2 °C in series [3]; 1.1 °C in [4]; 1.9 °C in [5]. Besides, the Activity entry is reported as “Toxic” in series [6], “Toxic” in series [8], 58% in [10] and 6% in [11]. Also, the inhibition result in series [7] is “Dose-Dependent Effect”. In addition, the inhibition entry in series [9], in series [12] and in [13] was “Active” throughout.

`CNc1ncc2cc(-c3ccc(-c4ncccc4F)cc3Cl)c(=O)n(C[C@H]3OC[C@H](N)CO3)c2n1`: the Activity entry in [14] is “Non-Toxic”; in series [6], “Toxic”; in [15], 13%; in series [10], 70%; in series [11] it was 7%. For the same molecule, the ΔTm is 3.5 °C in [1], 2.7 °C in series [2], 5.2 °C in series [4] and 1.8 °C in [5]. Besides, in series [7], the inhibition result was “Dose-Dependent Effect”. The inhibition entry in [9], in [12] and in series [13] was “Active” in each case.

In the case of `CNc1ncc2cc(-c3cc(C(F)(F)F)ccc3Cl)c(=O)n(CCCCN)c2n1`, the ΔTm in [1] amounted to 0.2 °C; in [2], 0.4 °C; in series [3], 0.8 °C; in series [4], 0.2 °C; in [5], 0.9 °C.

As to `CNc1ncc2cc(-c3cc(Br)ccc3Br)c(=O)n(CCCCN)c2n1`, the ΔTm in [1] amounted to 1.9 °C; in [2], 1.5 °C; in series [3] it was 1.4 °C; in [4], 0.7 °C; in [5], 1.6 °C.

`CNc1ncc2cc(-c3cc(Cl)ccc3Br)c(=O)n(CCCCN)c2n1`: the shift in melting temperature (ΔTm) in [1] worked out at 2 °C; in [2], 1.8 °C; in [3], 1.4 °C; in series [4], 0.6 °C; in series [5] it was 1.5 °C.

A word on the IC50: it is the concentration needed to halve the response being measured. For `CCCS(=O)(=O)Nc1ccc(F)c(C(=O)c2c[nH]c3ncc(-c4ccc(Cl)cc4)cc23)c1F` [VEMURAFENIB], the IC50 in series [16] amounted to 4 nM.

`CNc1ncc2cc(-c3cc(Br)ccc3Cl)c(=O)n(CCCCN)c2n1`: the ΔTm in series [1] is 2.7 °C; in [2], 2.2 °C; in [3], 2.5 °C; in series [4], 0 °C; in series [5], 1.9 °C.

Take `CNc1ncc2cc(-c3ccc(-c4cccc(C)n4)cc3Cl)c(=O)n(C[C@H]3OC[C@H](N)CO3)c2n1`: the thermal shift (ΔTm) in series [1] came out at 8.5 °C; in series [5], 4.2 °C. The IC50 in series [17] was 33 nM.

`CN[C@@H]1C[C@H]2O[C@@](C)([C@@H]1OC)n1c3ccccc3c3c4c(c5c6ccccc6n2c5c31)C(=O)NC4`: the thermal shift (ΔTm) in [4] came to 6.7 °C.

As to `CNc1ncc2cc(-c3cc(Cl)ccc3Cl)c(=O)n(CCCCN)c2n1`, the ΔTm stood at 1.9 °C in [1]; 2 °C in [2]; 1.4 °C in [3]; 0.7 °C in [4]; 1.6 °C in series [5].

On to `CNc1ncc2cc(-c3cc(F)c(-c4cccc(C)n4)cc3F)c(=O)n(CCCCN)c2n1`, for which the thermal shift (ΔTm) in series [1] amounted to 9.7 °C; in [2], 7.6 °C; in [3], 5.2 °C; in [4], 3.6 °C; in series [5] it was 2.8 °C.

(Values after ChEMBL document CHEMBL5325437, “Shifting the selectivity of pyrido[2,3-d]pyrimidin-7(8H)-one inhibitors towards the salt-inducible kinase (SIK) subfamily” (Eur J Med Chem, 2023).)
